This note sets out measurements from ChEMBL document CHEMBL3351562, “Oxo- and thiooxo-imidazo[1,5-c]pyrimidine molecule library: beyond their interest in inhibition of Brucella suis histidinol dehydrogenase, a powerful protection tool in the synthesis of histidine analogues” (Bioorg Med Chem Lett, 2014).

Molecules are shown by their SMILES.

The nature of the assay: Inhibition of Brucella suis histidinol dehydrogenase assessed as NADH released as a by-product preincubated for 5 min at 30 degC by spectrophotometric method.
One may read the IC50 as the concentration at which inhibition is half-maximal. For `N[C@@H](Cc1c[nH]cn1)C(=O)Cc1ccc(F)cc1F`, the concentration for half-maximal inhibition (IC50) was determined as 0.01 µM. The same measure for `Cc1ccc(CC(=O)[C@@H](N)Cc2c[nH]cn2)cc1`: 0.015 µM. The same measure for `N[C@@H](Cc1c[nH]cn1)C(=O)Cc1ccc(Br)cc1`: 0.006 µM; for `N[C@@H](Cc1c[nH]cn1)C(=O)Cc1ccc(-c2ccccc2)cc1`: 0.012 µM; for `N[C@@H](Cc1c[nH]cn1)C(=O)Cc1ccc(Cl)cc1`: 0.012 µM. The figure for `COC(=O)[C@@H]1Cc2cncn2C(=O)N1` is 532 µM; for `O=C(Cc1ccc(Br)cc1)[C@@H]1Cc2cncn2C(=O)N1` it is 98 µM; for `O=C(Cc1ccc(Cl)cc1)[C@@H]1Cc2cncn2C(=O)N1` it is 92 µM. Regarding `Cc1ccc(CC(=O)[C@@H]2Cc3cncn3C(=O)N2)cc1`, the IC50 is 113 µM.

Consider `O=C(Cc1ccc(F)cc1F)[C@@H]1Cc2cncn2C(=O)N1`, for which the half-maximal inhibitory concentration (IC50) turned out to be 143 µM. As for `O=C(Cc1ccc(-c2ccccc2)cc1)[C@@H]1Cc2cncn2C(=O)N1`, the IC50 was determined as 86 µM. For the molecule `CCCCCc1ccc(C#Cc2ccc(CC(=O)[C@@H]3Cc4cncn4C(=O)N3)cc2)cc1`, the IC50 turned out to be 175 µM.

Consider `COC(=O)[C@@H]1Cc2cncn2C(=S)N1`, for which the concentration for half-maximal inhibition (IC50) amounted to 18 µM. The same measure for `O=C(Cc1ccc(Br)cc1)[C@@H]1Cc2cncn2C(=S)N1`: 105 µM. The figure for `O=C(Cc1ccc(Cl)cc1)[C@@H]1Cc2cncn2C(=S)N1` is 74 µM; for `Cc1ccc(CC(=O)[C@@H]2Cc3cncn3C(=S)N2)cc1` it is 95 µM. The figure for `O=C(Cc1ccc(F)cc1F)[C@@H]1Cc2cncn2C(=S)N1` is 95 µM; for `O=C(Cc1ccc(-c2ccccc2)cc1)[C@@H]1Cc2cncn2C(=S)N1` it is 5 µM; for `CCCCCc1ccc(C#Cc2ccc(CC(=O)[C@@H]3Cc4cncn4C(=S)N3)cc2)cc1` it is 322 µM. For `CCCCCc1ccc(C#Cc2ccc(CC(=O)[C@@H](N)Cc3c[nH]cn3)cc2)cc1`, the half-maximal inhibitory concentration (IC50) turned out to be 0.009 µM.
